Results as given in patent EP1510220B1 (priority 1993, dated 1994).

Experiments:
Type in all cases: cell-based
[1] = test system: mink lung endothelial (MvLu) cells; test: DNA synthesis of MvLu cells, direct addition of agent; details: 50 micromolar in fresh DMEM + 10% FCS
Method: Assays for TGF-Beta. The TGF-beta activity present in medium conditioned on various cells was determined by DNA synthesis assay on mink lung […] (MvLu) cells; a modification of the assay described in Danielpour et al., J. Cell. Physiol., 138: 79-83, 1989. MvLu cells were subcultured at 1:5 dilution in DMEM + 10% FCS. After 24 hours, the medium was replaced with the conditioned medium to be tested in the absence or presence of the neutralizing antiserum to TGF-beta at 10 micrograms/ml. DNA synthesis during a 1 hour pulse of [^3H]-thymidine (5 microcuries/ml) was determined 23 hours after addition of the test medium. TGF-beta activity was calculated as the proportion of the inhibition of DNA synthesis which was reversed in the presence of neutralizing antibody, using a standard curve to convert the inhibition values into quantities of TGF-beta. The TGF-beta1 standards and conditioned media both contained 10% FCS in DMEM.

[2] = test system: human EX cultures; test: Proliferation of explant-derived (EX) human VSMC cultures; details: Homo sapiens, VSMC
Method: Human aortic VSMC cultures. Adult human VSMC were obtained from 6 transplant donors (either sex, age range from 3 to 54 years) using the enzyme dispersal or explant technique. In one case, the same donor (a person) was used to establish both an enzyme-dispersed (ED) and explant-derived (EX) cell culture. Prior to enzyme-dispersion or explanting treatment, human aortas were obtained within 18 h of death. The endothelium layer was removed with a scalpel blade and strips of smooth muscle cells (tunica media) were removed with forceps and chopped into small pieces (1 mm^3).
EX Cultures. The aortic pieces were washed once with D-MEM + 10% FCS, resuspended in a small volume of fresh D-MEM + 10% FCS, and transferred to culture flasks or Petri dishes. The pieces were allowed to sediment onto the plastic and were evenly distributed (≈ 4 pieces/cm^2). Cells started to grow out from the explants after 3-7 d in culture. The aortic pieces were removed during the third week in culture, and the cells adhering to the plastic were allowed to grow to confluence for a further week. The cells were then subcultured every 4-5 days by releasing them with trypsin/EDTA and diluting them 1:2 in D-MEM + 10% FCS. Subcultured cells were incubated with fresh D-MEM + 20% FCS as described for ED cultures.
Cell counting, DNA synthesis assays and assays for total and active TGF-beta were performed as described in Example 7.

[3] = test system: B054 cells (baboon smooth muscle cells); test: cells

CC/C(=C(\c1ccccc1)c1ccc(OCCN(C)C)cc1)c1ccccc1 [tamoxifen, trans-2-[4-(1,2-diphenyl-1-butenyl)phenoxy]-N,N-dimethylethylamine]
effect on DNA synthesis of MvLu cells [1]: no effect on DNA synthesis | inhibition at 0.5 µM ([2]; 0.5 µM, 96 h in D-MEM + 20% FCS, vs ethanol vehicle, read-out: inhibition of the increase in cell number): 27 ± 2% | inhibition at 5 µM ([2]; 5 µM, read-out: inhibition of the increase in cell number): 33 ± 8% | IC50 ([2]; read-out: half-maximal inhibitory dose): 30 to 100 nM

cytochalasin B
minimum effective dose (MED), protein synthesis assay ([3]; 5 minute exposure): 10 µg/mL | minimum effective dose (MED), protein synthesis assay ([3]; 24 hour exposure): 1.0 µg/mL
